Values after ≈ are worked out from the molar mass of the structure shown. Where two headings read alike, the source gives them in different places. Bridge positions count the residues as written; N and C are the ends. Square brackets hold non-standard residues; d marks the D form. Peptide text beside a SMILES is read from it. * marks the point of attachment. Dab(CH2SO3H) = N[C@@H](CCNCS(=O)(=O)O)C(=O)O; Heptanoyl(6-Me) = CC(C)CCCCC(=O)*; Sulfomethyl = O=S(=O)(O)C*; dOrn = NCCC[C@@H](N)C(=O)O; Nonanoyl = CCCCCCCCC(=O)*; X1 = CC[C@H](C)CCCCC(=O)*; Heptanoyl = CCCCCCC(=O)*; Octanoyl = CCCCCCCC(=O)*; dDap = NC[C@@H](N)C(=O)O; Dab = NCC[C@H](N)C(=O)O; Dap = NC[C@H](N)C(=O)O
Experiments:
Assay type in all cases: cell-based
[1] = test system: Klebsiella pneumoniae KPN+19-15
Outline: (§1)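 Colonies from 18-24 h plates were suspended to 0.5 McFarland and diluted in MH broth. Two-fold compound dilutions were then mixed 1:1 with inoculum to reach 64 to 0.03 mg/L and (2-4) × 10^5 CFU/mL. Plates were sealed and incubated at 35-37°C for 16-20 h, after which the MIC was read.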

[2] = test system: Escherichia coli ATCC BAA-2340 (KPC)
Outline: as §1

[3] = test system: Pseudomonas aeruginosa PAE19-3
Outline: as §1

[4] = test system: Pseudomonas aeruginosa ATCC 27853
Outline: as §1

[5] = test system: Acinetobacter baumannii ABA19-1
Outline: as §1

[6] = test system: Escherichia coli ATCC BAA-2523
Outline: as §1

[7] = test system: Klebsiella pneumoniae ATCC BAA-1705 (KPC)
Outline: as §1

[8] = test system: Acinetobacter baumannii NCTC 13304 (OXA-27)
Outline: as §1

[9] = Nephrotoxicity assay: in vitro cytotoxicity of HK-2 cells by CCK-8 assay; conditions: human, HK-2 cells (human renal), 72 h incubation with drug-containing medium
Outline: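 HK-2 human renal cells in RPMI-1640 with 10% FBS were exposed to compounds at final 12.5–500 µg/mL for 72 h, then CCK-8 for 3 h and OD450 read. Viability was normalised to drug-free wells; IC50 came from logarithmic regression over three repeats, with polymyxin B as positive drug.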

[10] = Klebsiella pneumoniae KPN 19-15
[11] = Escherichia coli ATCC BAA-2340 (KPC)
[12] = Pseudomonas aeruginosa ATCC27853
[13] = Acinetobacter baumannii ABA19-1
[14] = Klebsiella pneumoniae ATCC BAA-1705 (KPC)
[15] = Acinetobacter baumannii NCTC 13304 (OXA-27)

Compound | MIC ([1]; KPN+19-15) [µg/mL] | MIC ([2]; ATCC BAA-2340) [µg/mL] | MIC ([3]; PAE19-3) [µg/mL] | MIC ([4]; ATCC 27853) [µg/mL] | MIC ([5]; ABA19-1) [µg/mL] | MIC ([6]; ATCC BAA-2523) [µg/mL] | MIC ([7]; ATCC BAA-1705) [µg/mL] | MIC ([8]; NCTC 13304) [µg/mL] | IC50 at 72 h [9] [µg/mL] | MIC [1, 10] [µg/mL] | MIC [2, 11] [µg/mL] | MIC ([3]; Pseudomonas aeruginosa PAE19-3) [µg/mL] | MIC [4, 12] [µg/mL] | MIC [5, 13] [µg/mL] | MIC ([6]; Escherichia coli ATCC BAA-2523) [µg/mL] | MIC [7, 14] [µg/mL] | MIC [8, 15] [µg/mL]
CC(C)CCCCC(=O)N[C@@H](CCN)C(=O)N[C@H](C(=O)N[C@H](COCS(=O)(=O)O)C(=O)N[C@H]1CCNC(=O)[C@H]([C@@H](C)O)NC(=O)[C@H](CCN)NC(=O)[C@H](CCN)NC(=O)[C@H]([C@@H](C)O)NC(=O)[C@@H](Cc2ccccc2)NC(=O)[C@H](CCN)NC1=O)[C@@H](C)O [Compound 103, 6-methylheptanoyl-Dab-Thr-D-Ser(CH2SO3H)-ring(4-10)[Dab-Dab-D-Phe-Thr-Dab-Dab-Thr]] ({Heptanoyl(6-Me)}-[Dab]T[dS](Sulfomethyl)[Dab][Dab][dF]T[Dab][Dab]T; lactam 4-C) | 0.125 (≈ 0.0993 µM) | 0.03 (≈ 0.0238 µM) | 0.25 (≈ 0.199 µM) | 0.25 (≈ 0.199 µM) | 0.06 (≈ 0.0477 µM) | 0.03 (≈ 0.0238 µM) | 0.125 (≈ 0.0993 µM) | 0.06 (≈ 0.0477 µM) | > 500 |  |  |  |  |  |  |  | 
CC(C)CCCCC(=O)N[C@@H](CCN)C(=O)N[C@H](C(=O)N[C@H](CO)C(=O)N[C@H]1CCNC(=O)[C@H]([C@@H](C)O)NC(=O)[C@H](CCN)NC(=O)[C@H](CCN)NC(=O)[C@H]([C@@H](C)O)NC(=O)[C@@H](Cc2ccccc2)NC(=O)[C@H](CCNCS(=O)(=O)O)NC1=O)[C@@H](C)O [Compound 109, 6-methylheptanoyl-Dab-Thr-D-Ser-ring(4-10)[Dab-Dab(CH2SO3H)-D-Phe-Thr-Dab-Dab-Thr]] ({Heptanoyl(6-Me)}-[Dab]T[dS][Dab][Dab(CH2SO3H)][dF]T[Dab][Dab]T; lactam 4-C) | 0.125 (≈ 0.0993 µM) | 0.06 (≈ 0.0477 µM) | 0.5 (≈ 0.397 µM) | 0.25 (≈ 0.199 µM) | 0.25 (≈ 0.199 µM) | 0.06 (≈ 0.0477 µM) | 0.125 (≈ 0.0993 µM) | 0.06 (≈ 0.0477 µM) | > 500 |  |  |  |  |  |  |  | 
CC(C)CCCCC(=O)N[C@@H](CCN)C(=O)N[C@H](C(=O)N[C@H](CCCN)C(=O)N[C@H]1CCNC(=O)[C@H]([C@@H](C)O)NC(=O)[C@H](CCN)NC(=O)[C@H](CCN)NC(=O)[C@H]([C@@H](C)O)NC(=O)[C@@H](Cc2ccccc2)NC(=O)[C@H](CCN)NC1=O)[C@@H](C)O [Compound 22, 6-methylheptanoyl-Dab-Thr-D-Orn-ring(4-10)[Dab-Dab-D-Phe-Thr-Dab-Dab-Thr]] ({Heptanoyl(6-Me)}-[Dab]T[dOrn][Dab][Dab][dF]T[Dab][Dab]T; lactam 4-C) | 0.125 (≈ 0.105 µM) | ≤0.03 | 1 (≈ 0.839 µM) | 0.25 (≈ 0.21 µM) | 0.125 (≈ 0.105 µM) | ≤0.03 | 0.06 (≈ 0.0504 µM) | 0.06 (≈ 0.0504 µM) | > 500 |  |  |  |  |  |  |  | 
CC[C@H](C)CCCCC(=O)N[C@@H](CCN)C(=O)N[C@H](C(=O)N[C@H](CO)C(=O)N[C@H]1CCNC(=O)[C@H]([C@@H](C)O)NC(=O)[C@H](CCN)NC(=O)[C@H](CCN)NC(=O)[C@H]([C@@H](C)O)NC(=O)[C@@H](Cc2ccccc2)NC(=O)[C@H](CN)NC1=O)[C@@H](C)O [Compound 61, (S)-6-methyloctanoyl-Dab-Thr-D-Ser-ring(4-10)[Dab-Dap-D-Phe-Thr-Dab-Dab-Thr]] (X1-[Dab]T[dS][Dab][Dap][dF]T[Dab][Dab]T; lactam 4-C) |  |  |  |  |  |  |  |  | > 500 | 0.5 (≈ 0.429 µM) | 0.06 (≈ 0.0515 µM) | 4 (≈ 3.44 µM) | 64 (≈ 55 µM) | 0.25 (≈ 0.215 µM) | 0.06 (≈ 0.0515 µM) | 0.25 (≈ 0.215 µM) | 0.25 (≈ 0.215 µM)
CCCCCCCC(=O)N[C@@H](CCN)C(=O)N[C@H](C(=O)N[C@H](CN)C(=O)N[C@H]1CCNC(=O)[C@H]([C@@H](C)O)NC(=O)[C@H](CCN)NC(=O)[C@H](CCN)NC(=O)[C@H](CC(C)C)NC(=O)[C@@H](Cc2ccccc2)NC(=O)[C@H](CCN)NC1=O)[C@@H](C)O [Compound 33, Octanoyl-Dab-Thr-D-Dap-ring(4-10)[Dab-Dab-D-Phe-Leu-Dab-Dab-Thr]] (Octanoyl-[Dab]T[dDap][Dab][Dab][dF]L[Dab][Dab]T; lactam 4-C) |  |  |  |  |  |  |  |  | 339 ± 9.1 (≈ 289 µM) | 0.03 (≈ 0.0255 µM) | 0.03 (≈ 0.0255 µM) | 0.25 (≈ 0.213 µM) | 0.03 (≈ 0.0255 µM) | 0.03 (≈ 0.0255 µM) | 0.03 (≈ 0.0255 µM) | 0.03 (≈ 0.0255 µM) | 0.03 (≈ 0.0255 µM)
CCCCCCC(=O)N[C@@H](CN)C(=O)N[C@H](C(=O)N[C@H](CO)C(=O)N[C@H]1CCNC(=O)[C@H]([C@@H](C)O)NC(=O)[C@H](CCN)NC(=O)[C@H](CCN)NC(=O)[C@H]([C@@H](C)O)NC(=O)[C@@H](Cc2ccccc2)NC(=O)[C@H](CCN)NC1=O)[C@@H](C)O [Compound 54, Heptanoyl-Dap-Thr-D-Ser-ring(4-10)[Dab-Dab-D-Phe-Thr-Dab-Dab-Thr]] (Heptanoyl-[Dap]T[dS][Dab][Dab][dF]T[Dab][Dab]T; lactam 4-C) | 0.5 (≈ 0.44 µM) | 0.03 (≈ 0.0264 µM) | 8 (≈ 7.04 µM) | 64 (≈ 56.3 µM) | 0.25 (≈ 0.22 µM) | 0.03 (≈ 0.0264 µM) | 0.25 (≈ 0.22 µM) | 0.25 (≈ 0.22 µM) | > 500 |  |  |  |  |  |  |  | 
CCCCCCCCC(=O)N[C@@H](CCN)C(=O)N[C@H](C(=O)N[C@H](CO)C(=O)N[C@H]1CCNC(=O)[C@H]([C@@H](C)O)NC(=O)[C@H](CN)NC(=O)[C@H](CCN)NC(=O)[C@H]([C@@H](C)O)NC(=O)[C@@H](Cc2ccccc2)NC(=O)[C@H](CCN)NC1=O)[C@@H](C)O [Compound 85, Nonanoyl-Dab-Thr-D-Ser-ring(4-10)[Dab-Dab-D-Phe-Thr-Dab-Dap-Thr]] (Nonanoyl-[Dab]T[dS][Dab][Dab][dF]T[Dab][Dap]T; lactam 4-C) | 0.5 (≈ 0.429 µM) | 0.25 (≈ 0.215 µM) | 64 (≈ 55 µM) | >64 | 0.06 (≈ 0.0515 µM) | 0.25 (≈ 0.215 µM) | 0.25 (≈ 0.215 µM) | 0.03 (≈ 0.0258 µM) | 357 ± 28.8 (≈ 307 µM) |  |  |  |  |  |  |  | 
CCCCCCCCC(=O)N[C@@H](CCN)C(=O)N[C@H](C(=O)N[C@H](CO)C(=O)N[C@H]1CCNC(=O)[C@H]([C@@H](C)O)NC(=O)[C@H](CCN)NC(=O)[C@H](CCN)NC(=O)[C@H]([C@@H](C)O)NC(=O)[C@@H](Cc2ccccc2)NC(=O)[C@H](CN)NC1=O)[C@@H](C)O [Compound 65, Nonanoyl-Dab-Thr-D-Ser-ring(4-10)[Dab-Dap-D-Phe-Thr-Dab-Dab-Thr]] (Nonanoyl-[Dab]T[dS][Dab][Dap][dF]T[Dab][Dab]T; lactam 4-C) | 0.5 (≈ 0.429 µM) | 0.25 (≈ 0.215 µM) | 8 (≈ 6.87 µM) | 64 (≈ 55 µM) | 0.25 (≈ 0.215 µM) | 0.25 (≈ 0.215 µM) | 0.25 (≈ 0.215 µM) | 0.25 (≈ 0.215 µM) | 370 ± 31.8 (≈ 318 µM) |  |  |  |  |  |  |  | 
CCCCCCCCC(=O)N[C@@H](CCN)C(=O)N[C@H](C(=O)N[C@H](CCCN)C(=O)N[C@H]1CCNC(=O)[C@H]([C@@H](C)O)NC(=O)[C@H](CCN)NC(=O)[C@H](CCN)NC(=O)[C@H]([C@@H](C)O)NC(=O)[C@@H](Cc2ccccc2)NC(=O)[C@H](CCN)NC1=O)[C@@H](C)O [Compound 25, Nonanoyl-Dab-Thr-D-Orn-ring(4-10)[Dab-Dab-D-Phe-Thr-Dab-Dab-Thr]] (Nonanoyl-[Dab]T[dOrn][Dab][Dab][dF]T[Dab][Dab]T; lactam 4-C) | 0.125 (≈ 0.104 µM) | ≤0.03 | 2 (≈ 1.66 µM) | 0.5 (≈ 0.415 µM) | 0.125 (≈ 0.104 µM) | ≤0.03 | 0.06 (≈ 0.0498 µM) | 0.06 (≈ 0.0498 µM) | 338 ± 15.1 (≈ 280 µM) |  |  |  |  |  |  |  | 
